Like-named read-outs stand apart in the source and are kept apart here.
Columns and labels:
H1299 and H1437 cells = experiment: qRT-PCR of YAP1 and STAT3 pathway genes after drug treatment for 72 hours; assay type: cell-based, human
Description: qRT-PCR. The mRNA expression level of each gene was determined by qRT-PCR. […] We quantified the β-actin mRNA level to normalize the expression levels of the targeted genes. Each sample was tested in triplicate and run three times. Each graph shown in our figures indicates the average mRNA expression level of targeted genes compared with the β-actin expression level, with standard error of mean. To determine doses of these drugs that are effective for pathway inhibition, H1299 and H1437 cells were treated with verteporfin or S3I-201 for 72 hours.

H1299 xenografts = experiment: H1299 xenograft treatment; assay type: in vivo, NSG mice; conditions: verteporfin 50 mg/kg i.p. three times a week; S3I-201 5 mg/kg i.p. every day
From the text: For therapeutic experiments, 4- to 5-week-old NOD/SCID/IL2Ry−/− (NSG) mice were obtained from the Johns Hopkins Medical Institute's (Baltimore, MD) animal care facility. We injected H1299 cells (1×106) and H1437 cells (1×106), which were suspended in the mixture as described above, subcutaneously into both flanks. For the patient-derived xenograft (PDX) models, 13 PDX blocks (CTG0162, 0178, 0502, 0848, 1309, 1351, 1358, 1361, 1762, 1885, 2017, 2481, and 2708) were obtained from Champion Oncology. All these PDXs were established from primary lung adenocarcinoma tumors. The tumor tissues were cut into 4×2 mm pieces and implanted in the subcutaneous spaces of both flanks. When tumor volumes reached to 200+50 mm3, mice were randomly assigned to six experimental groups [control, chemo (cisplatin+gemcitabine), chemo+verteporfin, chemo+S3I-201, “all” (cisplatin+gemcitabine+verteporfin+S3I-201), and verteporfin+S3I-201] at 5 mice per group. Cisplatin (Sigma-Aldrich; #P4394), gemcitabine (Medkoo; #100410), S3I-201 (MedKoo; #202541), and verteporfin (Sigma-Aldrich; #1711461) were used to treat the mice. Cisplatin (2.5 mg/kg) and gemcitabine (120 mg/kg) were administrated via intraperitoneal injection once a week (22). […] Each tumor volume was measured every 3 days. Therapeutic efficacy was evaluated from percentage change of the tumor volume compared with the tumor size before treatment.

UPPL 595 cells = experiment: Wound healing; assay type: cell-based, mouse; conditions: VP treated versus control cells
[1] = tested on: MB49, UPPL596 and BBN 975; experiment: Cell derived xenografts treated with verteporfin; assay type: in vivo, C57BL/6 mice
Description: In vivo xenograft assay and treatment. For in vivo xenograft, cells were suspended in 100 μL of a 1:1 mixture of serum-free DMEM and Cultrex Stem Cell Qualified Reduced Growth Factor Basement Membrane Extract (Trevigen, Gaithersburg, USA), and then injected subcutaneously into the both flanks of C57BL/6 mice for MB49/UPPL595/BBN975 cells. For treatment, animals will be randomized to different treatment groups of 5 mice after growth of tumors to 100 mm3. The potential drugs are anti-PD-L1 monoclonal antibody (B7-H1, Bio X Cell, West Lebanon, USA) and verteporfin (NedKoo, Morrisville, USA). Verteporfin (50 mg/kg) will be administered via i.p. every other day. Anti-PD-L1 monoclonal antibody and the corresponding isotype antibody (200 μg/mouse) were administered via ip injection every 3 to 4 days. Treatment was performed for 14 days. To test the pharmacological inhibition of YAP1 on in vivo tumor growth in NSG and immune competent mice, CDXs were developed using three different mouse derived cancer cell lines (MB49, UPPL596 and BBN 975). Verteporfin was administered interperitoneally at a dose of 50 mg/kg body weight at every other day. […] Tumor mass values also indicate similar trend (FIG. 23C-23E; bottom).

MB49, UPPL595 and BBN975 = experiment: FABP4 expression and lipid droplet quantification after VP, mouse UCB cell lines; assay type: cell-based
Description: RNA extraction and quantitative reverse transcriptase polymerase chain reaction (Q-RT-PCR). Total RNA from cell lines was isolated using the RNeasy Plus Mini Kit (Qiagen, Germantown, USA), according to the manufacturer's protocol. This total RNA was converted to cDNA using the SuperScript III First-Strand Synthesis System (Life technologies, Carlsbad, USA), which was then used as a template for qRT-PCR. qRT-PCR was performed using the Fast SYBR Green Master Mix (Thermo Fisher Scientific, Waltham, USA) on a Quant studio 6 Fast Real-Time PCR System (Life technologies) in triplicate. SDS software (Applied Biosystems) was used to determine cycle threshold (Ct) values. The expression levels were quantified relative to β-actin using the 2-ΔΔCt method. YAP1 influences the accumulation of lipid droplets in cancer cells. […] Therefore, apart from investigating the altered regulation of intracellular signaling cascades, the present inventors also studied cellular metabolism in response to YAP1 modulation. […] It was reported that FABP4 is a critical molecule in accumulation of lipid droplets in the intracellular compartments (45). […] As increased amount of L-lactate correlated with more glycolysis and poor prognosis of cancer (46), the present inventors quantified L-lactate in mouse and human UCB cells with YAP1 modulation.

[2] = used clinically, or in clinical trials; cited from earlier work
YAP1 = YAP1 (Homo sapiens, UniProt P46937); conditions: cited from earlier work
YAP1, sequence (P46937 whole entry, species assumed): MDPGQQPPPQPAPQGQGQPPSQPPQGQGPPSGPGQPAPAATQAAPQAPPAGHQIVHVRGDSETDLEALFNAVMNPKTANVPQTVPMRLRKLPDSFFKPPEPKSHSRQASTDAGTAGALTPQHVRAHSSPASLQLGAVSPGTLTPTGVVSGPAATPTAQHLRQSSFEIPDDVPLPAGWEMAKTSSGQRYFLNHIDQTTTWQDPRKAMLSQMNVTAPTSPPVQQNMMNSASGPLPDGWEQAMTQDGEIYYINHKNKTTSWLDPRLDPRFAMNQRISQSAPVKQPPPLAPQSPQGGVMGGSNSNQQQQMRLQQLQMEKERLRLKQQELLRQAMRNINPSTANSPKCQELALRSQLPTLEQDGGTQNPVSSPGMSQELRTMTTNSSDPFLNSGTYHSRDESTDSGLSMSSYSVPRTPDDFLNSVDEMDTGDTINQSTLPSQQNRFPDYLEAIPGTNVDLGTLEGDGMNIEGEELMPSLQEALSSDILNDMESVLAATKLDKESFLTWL

colorectal cancer cells = conditions: in mice and in cells cultured under hypoxic and nutrient-deprived conditions; cited from earlier work

With `C=Cc1c(C)c2cc3nc(cc4[nH]c(cc5nc(cc1[nH]2)C(C)=C5CCC(=O)O)c(CCC(=O)OC)c4C)[C@@]1(C)C3=CC=C(C(=O)OC)[C@H]1C(=O)OC` [verteporfin, 3-[(23S,24R)-14-ethenyl-5-(3-methoxy-3-oxopropyl)-22,23-bis(methoxycarbonyl)-4,10,15,24-tetramethyl-25,26,27,28-tetraazahexacyclo[16.6.1.13,6.18,11.113,16.019,24]octacosa-1,3,5,7,9,11(27),12,14,16,18(25),19,21-dodecaen-9-yl]propanoic acid] the “mRNA expression of YAP1 and downstream targets CTGF and CYR61” value (H1299 and H1437 cells) was “suppressed mRNA expressions of YAP1 and its downstream targets, such as CTGF and CYR61, in a dose-dependent manner”, the “mRNA expression of YAP1 and downstream targets CTGF and CYR61” value (H1299 and H1437 cells; listed as Verteporfin) was “suppressed mRNA expression of YAP1, and its downstream targets, CTGF and CYR61, as the drug concentration was increased” and the tumor growth (H1299 xenografts) was “inhibited growth”. For the same compound, the wound closure (UPPL 595 cells) was “significant difference in wound closure”, the tumor growth ([1]; 50 mg/kg body weight i.p. every other day, immune competent mice) was “significant regression in tumor growth” and the “CCN1 and CCN2 expression (YAP1 downstream genes)” value ([1]; RT-qPCR) was “downregulated”. For the same compound, the “YAP1 expression in the tumor tissue” value ([1]; pharmacodynamic analysis) was “decrease YAP1 expression”, the “expression level of FABP4” value (MB49, UPPL595 and BBN975) was “significantly downregulated” and the adverse effects [2] was “few severe adverse effects were reported”. The “binding to YAP1 and YAP1-TEAD2 interaction” value (YAP1) was “bind to YAP1 and change its conformation, thereby abrogating its interaction with TEAD2” and the “killing of colorectal cancer cells by protein oligomer accumulation” value (colorectal cancer cells) was “selectively killed colorectal cancer cells”.
